According to patent publication US5633274A, “Cancer treatments” (President and Fellows of Harvard College, priority 1993, dated 1997):
“Also recorded” adds a separate entry of the source. Where two headings read alike, the source gives them in different places.

Columns and labels:
[1] = system: nonprostate cancer cells; assay: Proliferation of nonprostate cancer cells (general statements); format: cell-based; settings: for inhibition of (nonprostate cancer) cell proliferation: other channel and transport inhibitors
[2] = target: T1, Ca++ activated K channel of human erythrocytes (Homo sapiens, UniProt O15554); assay: Inhibition of Ca++ activated K channel of human erythrocytes (86Rb influx, K efflux); format: cell-based
T1 construct: Preparation of Human Red Blood Cells: Blood is collected in heparinized tubes; endogenous in cells; host or cells: washed human erythrocytes (red blood cells) from heparinized blood
Procedure: Preparation of Human Red Blood Cells: Blood is collected in heparinized tubes and centrifuged in a Sorvall centrifuge (RB 5B, Du Pont Instruments,Newtown, Conn.) at 5° C. for 10 minutes at 3000 g. Plasma and buffy coat are carefully removed and the cells washed four times with a washing solution containing 150 mM choline chloride (Sigma Co), 1 mM MgC12 (Sigma Co), 10 mM Tris-MOPS (Sigma, Ca), pH 7.4 at 4° C.(CWS). An aliquot of cells is then suspended in an approximately equal volume of CWS, and from this original cell suspension hematocrit (Hct) and hemoglobin (optical density at 540 nm) are determined.
Methods to Test Inhibitors of the Ca^++ Activated K: To test inhibitors of the Ca^++ activated K channel, the channel is activated using the calcium ionophore A23187 (Chalbiochem).
By Atomic Absorption Spectrometry: Washed human erythrocyte are suspended at an hematocrit≈1% in CWS containing 0.150 mM CaCl2 (Sigma Co) Aliquots of 1 ml are removed at 0, 3 and 5 minutes, layered on top of 0.3 ml of the oil n-butyl phthalate (Fair Lane, N.J.) placed in an Eppendorf microtube (Fisher) and then centrifuged in a micro centrifuge for 20 seconds. At time 5.30 minutes, ionophore A23187 (1 μM final concentration) is added and samples removed and spin down through phthalate at times 6, 7, 8 and 9 minutes. The supernatant on top of the oil layer is removed and its K+ concentration is measured by atomic absorption spectrometry using a Perking Elmer model 5000 spectrometer (Perkin Elmer Corp., Norwolk, Conn.). The efflux of K+ (mmol/l cells/h) in the absence and presence of the inhibitor is calculated from the slope of the curves relating the K+ concentration in the supernatants (mmol/l cells) vs. time (min.).
By radioisotopic measurement of ^86 Rb influx. The incubation medium is the same but contains 2 mM KCl and 1 μCi/ml of the radioactive tracer ^86 Rb. After spinning the samples through the phthalate layer, the tubes are rapidly frozen (-80° C.) by immersion in methanol-dry ice, the tips of the tubes containing the packed red cells cut, and counted in a Packard Gamma Counter.
The inhibitory effect of (CLT) on the Ca^++ activated K channel of human erythrocytes was assessed in the presence of 60 μmol A23187/L cell and 100 μMCaCl2.
Other antimycotics were tested for their inhibition of the Ca++ activated 86Rb influx human erythrocytes.

[3] = system: primary human sarcoma cells; assay: bFGF-stimulated DNA synthesis in primary human sarcoma cells; format: cell-based; settings: for inhibition of DNA synthesis by other inhibitors of the Ca++ activated K channel: toxins, concentration not given
Procedure: (§1) Primary human sarcomas rabdomyosarcoma and liposarcoma: Fresh human cancer specimens were obtained from human subjects undergoing a surgical procedure; the tumors were treated with colagenase to dissociate the cells which were then seeded at low density (1×10^5 in small culture chambers containing hybridomas grade culture medium supplemented with 5% fetal calf serum; after 12 hrs., when the cells were attached to the surface of the culture chambers, CLT (10 μM) or carrier (ethanol) were added *triplicate chambers). After 48 hours cell growth was assessed by optic miscroscopy calculating the surface of the culture flask covered by the cell monolayer.
Other antimycotics were tested for their inhibition of bFGF-stimulated DNA synthesis in the primary human sarcoma cells of Example 3.

[4] = system: human lung adenocarcinoma cells; assay: DNA synthesis ([3H]thymidine incorporation) in human lung adenocarcinoma cells; format: cell-based; settings: FIG. 1
Procedure: (§2) The inhibitory effect of clotrimazol (CLT) on cell proliferation was assessed in cancerous cells. Quiescent human colon adenocarcinoma and human lung adenocarcinoma cells were stimulated with 5% fetal calf serum and synthesis of DNA was assessed by the incorporation of [3H]thymidine measures 24 hours later. […] The effect was not due to a toxic, non-specific, effect because it was reversed by removing CLT and re-stimulating the cells with 5% fetal calf serum (FIG. 1).

[5] = system: Primary human sarcomas liposarcoma; assay: Cell growth of primary human liposarcoma (surface covered by monolayer); format: cell-based; settings: 10 μM CLT; 48 hours
Procedure: (§3) Measurement of cell density in culture plates: Cells of a specific test cell line are seeded at precisely the same low density in culture plates and incubated for approximately 12 hours in DME 10% serum, or other culture medium depending on the cell line tested. […] Alternatively, the cells can be detached from the plate by incubation with trypsin (Sigma, Co.) […] in ethylene diaminotetraacetic acid (ECTA; Sigma, Co); then the cells are counted in an hemocytometer chamber (Fisher, Pittsburgh, Pa.).
as §1

[6] = system: rat vascular smooth muscle cells
Procedure: (§4) DNA synthesis assessed by the uptake of [3H]thymidine: Cells are grown in either 48 or 96 wells plates (Costar, Cambridge, Mass.) at 10^4 and 0.8 10^3 cells per well, respectively, and grown in Dubelcco's modified Eagle's medium (DME, Gibco, Grand Island, N.Y.) supplemented with 10% heat-inactivated calf serum; they are kept at 37° C. in 5% CO2. When they reach confluence, usually between 3 and 4 days, the medium is replaced with DME 0.5% serum to make them quiescent, and mitogenesis assays are performed 24 hours later.
(§5) Quiescent cells are exposed to a mitogenic stimulus, such as 10% serum, PDGF (Sigma Co. St. Louis, Mo.), bFGF (Upstate Biotechnologies, Lake Placid, N.Y.), or other appropriate mitogen according to the cell line, and 3 hours later 1 μCi/ml of [3H]thymidine (Dupont, Billerica, Mass.) is added to the wells, and the cells maintained at 37° C./5% CO2 for additional 21 hours. Then the cells are washed 3 times with DME medium and the acid-precipitable radioactivity is extracted with cold 10% TCA (Sigma, Co). After neutralization with 0.3N NaOH (Sigma Co.), aliquots are counted in a Packard Tri-Carb Scintillation counter (Packard Instrument, Downer's Grove, Ill.).
Cells were stimulated using 5 μM bFGF.

[7] = system: human colon adenocarcinoma cells; assay: DNA synthesis ([3H]thymidine incorporation) in human colon adenocarcinoma cells; format: cell-based; settings: FIG. 1
Procedure: as §2

[8] = system: adenocarcinomas in rats; assay: Inhibition of tumor growth in vivo (adenocarcinomas in rats); parameters: species or system rat
Procedure: The efficacy of CLT was studied in inhibiting the growth of adenocarcinomas in rats. […] Tumors were measured by size and weight on a daily basis, and growth rates were calculated. Nonparametric statistical comparisons were made among the median growth rates of all of the treatment groups.

[9] = system: Primary human sarcomas rabdomyosarcoma; assay: Cell growth of primary human rabdomyosarcoma (surface covered by monolayer); format: cell-based; settings: 10 μM CLT; 48 hours
Procedure: as §3, §1

[10] = system: rat vascular smooth muscle cells; assay: cells; settings: read-out: inhibition of DNA synthesis
Procedure: as §4, §5
Cells were stimulated using 5 μM bFGF.

[11] = system: testicular and adrenal synthesis of steroid hormones, including testosterone; settings: cited from earlier work
[12] = system: 17-20 desmolase; settings: background; cited from earlier work
[13] = system: 21- and/or 11-hydroxylase; settings: background; cited from earlier work
[14] = system: 17-hydroxylase; settings: background; cited from earlier work
[15] = other antimycotics, human erythrocytes, FIG. 4
[16] = 10 μM CLT, 5% fetal calf serum stimulation, 24 hours
[17] = re-stimulated with 5% fetal calf serum
[18] = 60 μmol A23187/L cell and 100 μM CaCl2

C[C@@H]1O[C@@H](O[C@H]2C[C@@H](O)[C@]3(CO)[C@H]4[C@H](O)C[C@]5(C)[C@@H](C6=CC(=O)OC6)CC[C@]5(O)[C@@H]4CC[C@]3(O)C2)[C@H](O)[C@H](O)[C@H]1O [ouabain]
inhibition of (nonprostate cancer) cell proliferation [1]: do not inhibit cell proliferation

N=C(N)NC(=O)c1nc(Cl)c(N)nc1N [amiloride]
inhibition of (nonprostate cancer) cell proliferation [1]: do not inhibit cell proliferation

Cc1ncc([N+](=O)[O-])n1CCO [metronidazole]
inhibition of Ca++ activated 86Rb influx [2, 15]: only marginal

Clc1ccc(COC(Cn2ccnc2)c2ccc(Cl)cc2Cl)c(Cl)c1 (stereo not shown) [miconazole]
order of inhibitory potency (Ca++ activated 86Rb influx) ([2]; human erythrocytes, FIG. 4): clotrimazole more than miconazole; and both of these were more than econazole | inhibition of bFGF-stimulated DNA synthesis ([3]; 10 μM, FIG. 3): inhibited DNA synthesis | order of inhibitory potency (DNA synthesis) ([3]; 10 μM, FIG. 3): ECZ more potent than MCZ

Clc1ccc(COC(Cn2ccnc2)c2ccc(Cl)cc2Cl)cc1 (stereo not shown) [econazole]
order of inhibitory potency (Ca++ activated 86Rb influx) ([2]; human erythrocytes, FIG. 4): both of these were more than econazole | inhibition of bFGF-stimulated DNA synthesis ([3]; 10 μM, FIG. 3): inhibited DNA synthesis | order of inhibitory potency (DNA synthesis) ([3]; 10 μM, FIG. 3): ECZ more potent than MCZ

charybdotoxin
inhibition of (nonprostate cancer) cell proliferation [1]: do not inhibit proliferation | inhibition of DNA synthesis by other inhibitors of the Ca++ activated K channel [3]: failed to inhibit DNA synthesis

Clc1ccccc1C(c1ccccc1)(c1ccccc1)n1ccnc1 [clotrimazole]
inhibition of DNA synthesis [4, 16]: completely inhibited | reversibility of effect on removing CLT and re-stimulating (not due to a toxic, non-specific effect) [4, 17]: reversed | growth of sarcoma cells [5]: completely arrested | inhibition of growth [5]: More than 95% | dose dependence of inhibition of DNA synthesis ([6]; 0.001 μM, 0.1 μM, 1 μM and 10 μM): dose dependent | inhibition of DNA synthesis ([6]; 10 μM, bFGF stimulation): complete inhibition | inhibition of DNA synthesis [7, 16]: completely inhibited | reversibility of effect on removing CLT and re-stimulating (not due to a toxic, non-specific effect) [7, 17]: reversed | median tumor growth rate ([8]; 100 mg/kg by mouth in peanut oil): significant reduction | median tumor growth rate ([8]; 200 mg/kg by mouth in peanut oil): significant reduction | growth of sarcoma cells [9]: completely arrested | inhibition of growth [9]: More than 95% | inhibition of Ca++ activated 86Rb influx [2, 18]: markedly inhibited | inhibition of K efflux [2, 18]: markedly inhibited | order of inhibitory potency (Ca++ activated 86Rb influx) ([2]; human erythrocytes, FIG. 4): clotrimazole more than miconazole | inhibition at 1 µM [10]: 45% | order of inhibitory potency (DNA synthesis) [3]: CLT more potent than ECZ | inhibition of bFGF-stimulated DNA synthesis ([3]; 10 µM): inhibited DNA synthesis

OC(Cn1cncn1)(Cn1cncn1)c1ccc(F)cc1F [fluconazole]
inhibition of Ca++ activated 86Rb influx [2, 15]: no inhibition

Cc1ncc([N+](=O)[O-])n1CC(O)CCl (stereo not shown) [ornidazole]
inhibition of Ca++ activated 86Rb influx [2, 15]: no inhibition

kaliotoxin: specific inhibitor of the Ca++ activated potassium channel
inhibition of (nonprostate cancer) cell proliferation [1]: do not inhibit proliferation | inhibition of DNA synthesis by other inhibitors of the Ca++ activated K channel [3]: failed to inhibit DNA synthesis

CC(=O)N1CCN(c2ccc(OCC3COC(Cn4ccnc4)(c4ccc(Cl)cc4Cl)O3)cc2)CC1 (stereo not shown) [ketoconazole]
inhibition of testicular and adrenal synthesis of steroid hormones, including testosterone ([11]; in high doses): inhibits testicular and adrenal synthesis of steroid hormones, including testosterone | plasma testosterone ([11]; prostate cancer treatment): reduces plasma testosterone to castration levels | inhibition of 17-20 desmolase [12]: inhibition | inhibition of 21- and/or 11-hydroxylase [13]: marked inhibition | inhibition of growth/proliferation of nonprostate cancer cells ([1]; nonprostate cancer cells tested by the applicants): ineffective; also recorded: not useful for inhibiting proliferation | blockade of 17-hydroxylase [14]: partial blockade

CCS(=O)(=O)CCn1c([N+](=O)[O-])cnc1C [tinidazole]
inhibition of Ca++ activated 86Rb influx [2, 15]: no inhibition
